Measurements taken from EPA's ToxRefDB 2.

Experiments:
rat [1] = conditions: Prenatal developmental toxicity study, sprague dawley, Injection, Intraperitoneal, dose end: 15 GD
rat [2] = conditions: Sub-acute repeat dose toxicity, sprague dawley, Oral, Gavage/Intubation, dose end: 28 day
rat [3] = conditions: Prenatal developmental toxicity study, sprague dawley, Oral, Gavage/Intubation, dose end: 15 GD
rat [4] = conditions: Multigenerational reproductive toxicity study, sprague dawley, Oral, Feed, dose end: 2 generation
rat [5] = conditions: Multigenerational reproductive toxicity study, sprague dawley, Oral, Feed, dose end: 2 generation; remark: listed apart in the source
rat [6] = conditions: Prenatal developmental toxicity study, sprague dawley, Oral, Gavage/Intubation, dose end: 15 GD; remark: listed apart in the source
rat [7] = conditions: Prenatal developmental toxicity study, sprague dawley, Oral, Gavage/Intubation, dose end: 15 GD; remark: listed apart in the source
[8] = group: developmental, systemic / in life observation / body weight / fetal weight
[9] = group: maternal, systemic / in life observation / clinical signs / [other] + systemic / in life observation / clinical signs / altered breathing rate + …
[10] = group: maternal, reproductive / reproductive performance / estrous cycle / abnormal
[11] = group: systemic, systemic / clinical chemistry / alanine aminotransferase (alt/sgpt) / alanine aminotransferase (alt/sgpt) + systemic / clinical chemistry / …
[12] = group: systemic, systemic / organ weight / uterus / relative to body weight + systemic / organ weight / seminal vesicle / relative to body weight
[13] = group: developmental, developmental / developmental malformation / bone / incomplete ossification
[14] = group: maternal, systemic / in life observation / body weight / body weight gain + systemic / in life observation / food consumption / food consumption + …
[15] = group: offspring, systemic / in life observation / body weight / offspring (pup) weight gain
[16] = group: parental, systemic / in life observation / body weight / body weight + systemic / in life observation / body weight / body weight gain + systemic / in…
[17] = group: reproductive, reproductive / reproductive performance / fertility / fertility + reproductive / reproductive performance / mating / mating
[18] = group: offspring, developmental / offspring survival late / lactation index / lactation index + developmental / offspring survival late / viability index / …
[19] = group: parental, systemic / in life observation / body weight / body weight + systemic / in life observation / body weight / body weight gain
[20] = group: developmental, developmental / developmental malformation / bone / delayed ossification + systemic / in life observation / body weight / fetal weight
[21] = group: maternal, systemic / organ weight / liver / nos + reproductive / reproductive performance / resorptions / resorptions + systemic / in life observation…
[22] = group: developmental, developmental / developmental malformation / bone / ossification sites + developmental / developmental malformation / bone / unossified + …
[23] = group: maternal, systemic / in life observation / body weight / body weight gain + systemic / in life observation / clinical signs / labored respiration + …

Structure (SMILES): CC(C)NCC(O)c1ccc(O)c(O)c1.Cl (stereo not drawn) [Isoproterenol hydrochloride]
- LEL (rat [1]; [8]): 20 mg/kg/day
- LOAEL (rat [1]; [8]): > 80 mg/kg/day
- NEL (rat [1]; [8]): < 20 mg/kg/day
- NOAEL (rat [1]; [8]): ≥ 80 mg/kg/day
- LEL (rat [1]; [9]): 20 mg/kg/day
- LOAEL (rat [1]; [9]): > 80 mg/kg/day
- NEL (rat [1]; [9]): < 20 mg/kg/day
- NOAEL (rat [1]; [9]): ≥ 80 mg/kg/day

Structure (SMILES): CC(=O)N1CCN(c2ccc(OC[C@@H]3CO[C@@](Cn4ccnc4)(c4ccc(Cl)cc4Cl)O3)cc2)CC1 [Ketoconazole]
- LEL (rat [2]; [10]): 100 mg/kg/day
- LOAEL (rat [2]; [10]): > 100 mg/kg/day
- NEL (rat [2]; [10]): 25 mg/kg/day
- NOAEL (rat [2]; [10]): ≥ 100 mg/kg/day
- LOAEL (rat [2]; [11]): > 100 mg/kg/day
- NOAEL (rat [2]; [11]): ≥ 100 mg/kg/day
- LEL (rat [2]; [12]): 6.25 mg/kg/day
- NEL (rat [2]; [12]): < 6.25 mg/kg/day

Structure (SMILES): CCCCCCC(C)OC(=O)COc1nc(F)c(Cl)c(N)c1Cl (stereo not drawn) [Fluroxypyr-meptyl]
- LEL (rat [3]; [13]): > 600 mg/kg/day
- LOAEL (rat [3]; [13]): > 600 mg/kg/day
- NEL (rat [3]; [13]): ≥ 600 mg/kg/day
- NOAEL (rat [3]; [13]): ≥ 600 mg/kg/day
- LEL (rat [3]; [14]): 600 mg/kg/day
- LOAEL (rat [3]; [14]): 600 mg/kg/day
- NEL (rat [3]; [14]): 300 mg/kg/day
- NOAEL (rat [3]; [14]): 300 mg/kg/day

Structure (SMILES): CC(C)(NC(=O)NCc1ccccc1Cl)c1ccccc1 [Cumyluron]
- LEL (rat [4]; [15]): 297 mg/kg/day
- LOAEL (rat [4]; [15]): 297 mg/kg/day
- NEL (rat [4]; [15]): 54 mg/kg/day
- NOAEL (rat [4]; [15]): 54 mg/kg/day
- LEL (rat [4]; [16]): 297 mg/kg/day
- LOAEL (rat [4]; [16]): 297 mg/kg/day
- NEL (rat [4]; [16]): 54 mg/kg/day
- NOAEL (rat [4]; [16]): 54 mg/kg/day
- LEL (rat [4]; [17]): 297 mg/kg/day
- LOAEL (rat [4]; [17]): 297 mg/kg/day
- NEL (rat [4]; [17]): 54 mg/kg/day
- NOAEL (rat [4]; [17]): 54 mg/kg/day

Structure (SMILES): CCOC(=O)C1CC(=O)C(=C(O)C2CC2)C(=O)C1 (stereo not drawn) [Trinexapac-ethyl]
- LEL (rat [5]; [18]): 1250 mg/kg/day
- NEL (rat [5]; [18]): 592 mg/kg/day
- LEL (rat [5]; [19]): 592 mg/kg/day
- LOAEL (rat [5]; [19]): 592 mg/kg/day
- NEL (rat [5]; [16]): 59.1 mg/kg/day
- NOAEL (rat [5]; [16]): 59.1 mg/kg/day

Structure (SMILES): CC1(C)OC(c2ccco2)CN1C(=O)C(Cl)Cl (stereo not drawn) [Furilazole]
- LEL (rat [6]; [20]): 175 mg/kg/day
- LOAEL (rat [6]; [20]): > 175 mg/kg/day
- NEL (rat [6]; [20]): 75 mg/kg/day
- NOAEL (rat [6]; [20]): ≥ 175 mg/kg/day
- LOAEL (rat [6]; group: maternal, systemic / organ weight / liver / nos): 75 mg/kg/day
- LEL (rat [6]; group: maternal, systemic / organ weight / liver / nos + reproductive / reproductive performance / resorptions / resorptions): 75 mg/kg/day
- NEL (rat [6]; [21]): 10 mg/kg/day
- NOAEL (rat [6]; [21]): 10 mg/kg/day

Structure (SMILES): O=Cc1ccccc1C=O [1,2-Benzenedicarboxaldehyde]
- LEL (rat [7]; [22]): 40 mg/kg/day
- LOAEL (rat [7]; [22]): 40 mg/kg/day
- NEL (rat [7]; [22]): 20 mg/kg/day
- NOAEL (rat [7]; [22]): 20 mg/kg/day
- LEL (rat [7]; [23]): 10 mg/kg/day
- LOAEL (rat [7]; [23]): 10 mg/kg/day
- NEL (rat [7]; [23]): < 10 mg/kg/day
- NOAEL (rat [7]; [23]): < 10 mg/kg/day
